Test results from patent publication US9434743B2, “Indazole derivatives” (TAKEDA PHARMACEUTICAL COMPANY LIMITED, priority 2012, dated 2016).

Legend:
human MetAP2 enzyme [1] = target: T1, human MetAP2 enzyme (Homo sapiens, UniProt P50579); experiment: MetAP2 enzyme assay, enzyme complexed with cobalt ions; settings: MetAP2 Co pIC50, MetAP2 enzyme complexed with cobalt ions; Met-AMC substrate at Km
human MetAP2 enzyme [2] = target: T1, human MetAP2 enzyme; experiment: MetAP2 enzyme assay, enzyme complexed with manganese ions; settings: MetAP2 Mn pIC50, MetAP2 enzyme complexed with manganese ions; Met-AMC substrate at Km

T1 sequence (P50579 whole entry): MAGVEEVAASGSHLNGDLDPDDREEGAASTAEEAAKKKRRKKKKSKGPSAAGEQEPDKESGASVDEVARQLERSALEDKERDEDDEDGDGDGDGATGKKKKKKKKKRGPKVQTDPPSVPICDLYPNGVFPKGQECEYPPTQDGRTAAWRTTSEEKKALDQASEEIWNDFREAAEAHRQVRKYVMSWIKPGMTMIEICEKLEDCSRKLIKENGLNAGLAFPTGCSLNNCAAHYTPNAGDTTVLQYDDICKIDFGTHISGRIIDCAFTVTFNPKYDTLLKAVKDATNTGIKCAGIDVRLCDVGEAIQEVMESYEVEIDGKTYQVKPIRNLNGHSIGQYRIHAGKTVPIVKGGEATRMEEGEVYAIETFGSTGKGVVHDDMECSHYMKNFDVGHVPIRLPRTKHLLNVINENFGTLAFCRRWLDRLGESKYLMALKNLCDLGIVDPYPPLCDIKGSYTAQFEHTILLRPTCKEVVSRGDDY

SMILES	IC50 (human MetAP2 enzyme [1]) [nM]	IC50 (human MetAP2 enzyme [2]) [nM]
O=C(c1cc(-c2cc(C(F)(F)F)cc3[nH]ncc23)ccn1)N1CC(O)C1 [Example 385, (3-hydroxyazetidin-1-yl)(4-(6-(trifluoromethyl)-1H-indazol-4-yl)pyridin-2-yl)methanone]	79.4	5.01
Cc1[nH]c(=O)ccc1-c1cc(C(F)(F)F)cc2[nH]ncc12 [Example 389, 6-methyl-5-(6-(trifluoromethyl)-1H-indazol-4-yl)pyridin-2(1H)-one]	50.1	3.98
Cc1cc(=O)[nH]cc1-c1cc(C(F)(F)F)cc2[nH]ncc12 [Example 390, 4-methyl-5-(6-(trifluoromethyl)-1H-indazol-4-yl)pyridin-2(1H)-one]	39.8	6.31
COc1nc(C(N)=O)ccc1-c1cc(C(F)(F)F)cc2[nH]ncc12 [Example 391, 6-methoxy-5-(6-(trifluoromethyl)-1H-indazol-4-yl)picolinamide]	39.8	5.01
COc1nc(Cl)ccc1-c1cc(C(F)(F)F)cc2[nH]ncc12 [Example 392, 4-(6-chloro-2-methoxypyridin-3-yl)-6-(trifluoromethyl)-1H-indazole]	200	12.6
COc1nc(C(=O)NCCO)ccc1-c1cc(C(F)(F)F)cc2[nH]ncc12 [Example 394, N-(2-hydroxyethyl)-6-methoxy-5-(6-(trifluoromethyl)-1H-indazol-4-yl)picolinamide]	31.6	5.01
COc1nc(C(=O)N2CC(O)C2)ccc1-c1cc(C(F)(F)F)cc2[nH]ncc12 [Example 395, (3-hydroxyazetidin-1-yl)(6-methoxy-5-(6-(trifluoromethyl)-1H-indazol-4-yl)pyridin-2-yl)methanone]	31.6	6.31
COc1nc(C#N)ccc1-c1cc(C(F)(F)F)cc2[nH]ncc12 [Example 396, 6-methoxy-5-(6-(trifluoromethyl)-1H-indazol-4-yl)picolinonitrile]	126	12.6
CNc1nc(C)c(-c2cc(C(F)(F)F)cc3[nH]ncc23)cc1C(=O)N1CC(O)C1 [Example 397, (3-hydroxyazetidin-1-yl)(6-methyl-2-(methylamino)-5-(6-(trifluoromethyl)-1H-indazol-4-yl)pyridin-3-yl)methanone]	15.8	3.98
Cc1c(-c2cc(C(F)(F)F)cc3[nH]ncc23)ccc2nnnn12 [Example 398, 5-methyl-6-(6-(trifluoromethyl)-1H-indazol-4-yl)tetrazolo[1,5-a]pyridine]	126	3.98
Cc1nc(N2CCOCC2)ccc1-c1cc(C(F)(F)F)cc2[nH]ncc12 [Example 399, 4-(6-methyl-5-(6-(trifluoromethyl)-1H-indazol-4-yl)pyridin-2-yl)morpholine]	25.1	7.94
Cc1c(C(=O)N2CCN(C)CC2)cc(-c2cc(C(F)(F)F)cc3[nH]ncc23)c(=O)n1C [Example 401, 1,6-dimethyl-5-(4-methylpiperazine-1-carbonyl)-3-(6-(trifluoromethyl)-1H-indazol-4-yl)pyridin-2(1H)-one]	200	6.31
Cc1c(-c2cc(C(F)(F)F)cc3[nH]ncc23)ccc(=O)n1CC#N [Example 405, 2-(6-methyl-2-oxo-5-(6-(trifluoromethyl)-1H-indazol-4-yl)pyridin-1(2H)-yl)acetonitrile]	79.4	10
Cc1cc(=O)n(Cc2ccccn2)cc1-c1cc(C(F)(F)F)cc2[nH]ncc12 [Example 406, 4-methyl-1-(pyridin-2-ylmethyl)-5-(6-(trifluoromethyl)-1H-indazol-4-yl)pyridin-2(1H)-one]	79.4	15.8
Cc1c(-c2cc(C(F)(F)F)cc3[nH]ncc23)ccc(=O)n1Cc1ccccn1 [Example 407, 6-methyl-1-(pyridin-2-ylmethyl)-5-(6-(trifluoromethyl)-1H-indazol-4-yl)pyridin-2(1H)-one]	79.4	12.6
Cc1cc(=O)n(CC#N)cc1-c1cc(C(F)(F)F)cc2[nH]ncc12 [Example 408, 2-(4-methyl-2-oxo-5-(6-(trifluoromethyl)-1H-indazol-4-yl)pyridin-1(2H)-yl)acetonitrile]	79.4	3.98
Cc1nc(CCS(C)(=O)=O)ccc1-c1cc(C(F)(F)F)cc2[nH]ncc12 [Example 409, 4-(2-methyl-6-(2-(methylsulfonyl)ethyl)pyridin-3-yl)-6-(trifluoromethyl)-1H-indazole]	15.8	3.98
Cc1nc(N2CCN[C@H](C)C2)ccc1-c1cc(C(F)(F)F)cc2[nH]ncc12 [Example 414, (R)-4-(2-methyl-6-(3-methylpiperazin-1-yl)pyridin-3-yl)-6-(trifluoromethyl)-1H-indazole]	10	3.98

The remaining lines, values ahead:

IC50 (human MetAP2 enzyme [1]) [nM]	IC50 (human MetAP2 enzyme [2]) [nM]	SMILES
63.1	12.6	Cc1nn(CC(=O)NCCO)c(C)c1-c1cc(C(F)(F)F)cc2[nH]ncc12 [Example 386, 2-(3,5-dimethyl-4-(6-(trifluoromethyl)-1H-indazol-4-yl)-1H-pyrazol-1-yl)-N-(2-hydroxyethyl)acetamide]
25.1	6.31	Cc1nc(C(=O)NCCO)ccc1-c1cc(C(F)(F)F)cc2[nH]ncc12 [Example 387, N-(2-hydroxyethyl)-6-methyl-5-(6-(trifluoromethyl)-1H-indazol-4-yl)picolinamide]
63.1	7.94	Cc1cc2cncn2cc1-c1cc(C(F)(F)F)cc2[nH]ncc12 [Example 388, 4-(7-methylimidazo[1,5-a]pyridin-6-yl)-6-(trifluoromethyl)-1H-indazole]
50.1	6.31	Cc1c(-c2cc(C(F)(F)F)cc3[nH]ncc23)ccc2ncnn12 [Example 393, 5-methyl-6-(6-(trifluoromethyl)-1H-indazol-4-yl)-[1,2,4]triazolo[1,5-a]pyridine]
12.6	7.94	Cc1nc(N2CCN(C)CC2)ccc1-c1cc(C(F)(F)F)cc2[nH]ncc12 [Example 400, 4-(2-methyl-6-(4-methylpiperazin-1-yl)pyridin-3-yl)-6-(trifluoromethyl)-1H-indazole]
39.8	3.16	Cc1c(-c2cc(C(F)(F)F)cc3[nH]ncc23)ccc(=O)n1C [Example 402, 1,6-dimethyl-5-(6-(trifluoromethyl)-1H-indazol-4-yl)pyridin-2(1H)-one]
63.1	10	Cc1cc(=O)n(C)cc1-c1cc(C(F)(F)F)cc2[nH]ncc12 [Example 403, 1,4-dimethyl-5-(6-(trifluoromethyl)-1H-indazol-4-yl)pyridin-2(1H)-one]
251	12.6	Cc1c(C(=O)NCCO)cc(-c2cc(C(F)(F)F)cc3[nH]ncc23)c(=O)n1C [Example 404, N-(2-hydroxyethyl)-1,2-dimethyl-6-oxo-5-(6-(trifluoromethyl)-1H-indazol-4-yl)-1,6-dihydropyridine-3-carboxamide]
15.8	6.31	Cc1nn(Cc2cnn(C)c2)c(CO)c1-c1cc(C(F)(F)F)cc2[nH]ncc12 [Example 410, (3-methyl-1-((1-methyl-1H-pyrazol-4-yl)methyl)-4-(6-(trifluoromethyl)-1H-indazol-4-yl)-1H-pyrazol-5-yl)methanol]
